“Also recorded” adds a separate entry of the source. Where two headings read alike, the source gives them in different places.
Experiments:
[1] = system: SARS-CoV-2 S pseudovirions; test: microbe, parasite or virus in culture; format: cell-based; conditions: Severe acute respiratory syndrome coronavirus 2
[2] = system: TMPRSS2; test: TMPRSS2 protein expression in cell lines by Western blotting; format: cell-based, human; mouse; conditions: a-tubulin internal control, A549, H1299, CL1-5, Beas-2B, TC-1, MLE-12 cell lines, 18 to 24 hrs treatment
Protocol: The effects of Compound A and Compound B on TMPRSS2 were investigated in A549 (human alveolar epithelial cell), H1299 (human non-small cell lung carcinoma cell), CL1-5 (human lung adenocarcinoma cell), Beas-2B (human normal bronchial epithelial cell), TC-1 (mouse lung epithelial cell) and MLE-12 (mouse lung epithelial cell) cell lines. The expression of TMPRSS2 in cells was analyzed by Western blotting, and a-tubulin was used as an internal control.

[3] = read-out: EC50, inhibition of cellular entry of SARS-CoV-2 S pseudovirions

Question: What does the source list for `COc1ccc(/C=C/C(=O)C(F)(CC2CCC2)C(=O)/C=C/c2ccc(OC)c(OC)c2)cc1OC` [Compound A, 4-fluoro-4-cyclobutylmethyl-1,7-bis(3,4-dimethoxyphenyl)hepta-1,6-diene-3,5-dione]?
Answer: EC50 [1, 3]: ~5.3 µM; protein expression of TMPRSS2 [2]: inhibit the protein expression of TMPRSS2

Question: Which results are given for `COc1ccc(/C=C/C(=O)C(CC2CCC2)C(=O)/C=C/c2ccc(OC)c(OC)c2)cc1OC` [Compound B, 4-(cyclobutylmethyl)-1,7-bis(3,4-dimethoxyphenyl)hepta-1,6-diene-3,5-dione]?
Answer: EC50 [1, 3]: ~4.6 µM; EC50 ([1]; read-out: EC50, prophylactic inhibition of cellular entry of pseudovirions, wild-type Spike): ~3.5 µM; protein expression of TMPRSS2 [2]: inhibit the protein expression of TMPRSS2; also recorded: greater TMPRSS2 inhibitory activity as compared to Compound A

From patent US20220233468A1 (priority 2021, published 2022)
